Experimental data reported in patent US9273058B2 (BRISTOL-MYERS SQUIBB COMPANY, priority 2013, dated 2016).
pIC50: −log10 of the molar value. Read-outs that look alike come from different tables or passages of the source.

Columns and labels:
CK1δ = CK1δ (Homo sapiens, UniProt P48730); assay: CK1δ kinase assay (Caliper LabChip electrophoretic separation of fluoresceinated peptide substrate and product); assay type: biochemical; details: 200 pM CK1δ, 50 μM ATP, 1.5 μM peptide, 22 hours at room temperature
Outline: (§1)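 IC50 values were obtained by non-linear regression from eleven-concentration titrations. The kinase reactions were incubated for 22 hours at room temperature before termination with 35 mM EDTA.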

CK1ε = CK1ε (Homo sapiens, UniProt P49674); assay: CK1ε kinase assay (Caliper LabChip electrophoretic separation of fluoresceinated peptide substrate and product); assay type: biochemical; details: 200 pM CK1ε, 50 μM ATP, 1.5 μM peptide, 22 hours at room temperature
Outline: as §1

Chain of CK1ε (P49674 whole entry): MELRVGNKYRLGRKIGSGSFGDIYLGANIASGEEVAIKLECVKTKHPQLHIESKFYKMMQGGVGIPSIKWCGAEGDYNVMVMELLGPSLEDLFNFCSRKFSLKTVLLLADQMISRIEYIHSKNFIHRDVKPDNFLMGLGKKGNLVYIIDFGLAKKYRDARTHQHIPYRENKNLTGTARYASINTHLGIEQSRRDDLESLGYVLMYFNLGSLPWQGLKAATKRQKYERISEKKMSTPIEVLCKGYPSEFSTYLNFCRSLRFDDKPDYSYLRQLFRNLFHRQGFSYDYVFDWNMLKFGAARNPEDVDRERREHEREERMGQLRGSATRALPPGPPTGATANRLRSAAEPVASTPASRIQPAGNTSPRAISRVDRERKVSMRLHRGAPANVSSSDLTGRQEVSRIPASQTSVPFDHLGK
Chain of CK1δ (P48730 whole entry): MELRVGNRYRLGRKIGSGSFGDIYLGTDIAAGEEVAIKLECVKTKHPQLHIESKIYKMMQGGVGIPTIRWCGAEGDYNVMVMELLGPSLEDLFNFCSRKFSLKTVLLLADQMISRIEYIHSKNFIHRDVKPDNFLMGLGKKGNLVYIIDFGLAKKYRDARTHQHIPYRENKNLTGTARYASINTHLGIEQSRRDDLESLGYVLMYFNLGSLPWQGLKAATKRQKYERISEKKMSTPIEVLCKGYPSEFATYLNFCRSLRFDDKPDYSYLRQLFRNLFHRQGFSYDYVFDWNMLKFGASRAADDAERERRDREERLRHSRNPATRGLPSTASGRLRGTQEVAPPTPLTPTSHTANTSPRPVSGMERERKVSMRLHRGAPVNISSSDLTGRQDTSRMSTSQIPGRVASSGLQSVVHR

Compound	pIC50 (CK1δ; read-out: CK1δ IC50 range)	pIC50 (CK1ε; read-out: CK1ε IC50 range)	pIC50 (CK1δ; read-out: CK1δ)	pIC50 (CK1ε; read-out: CK1ε)
CC1(NC(=O)N2CCn3nc(-c4ccc(F)c(Cl)c4)c(C(N)=O)c3C2)CC(F)(F)C1 [Compound 296, 2-(3-Chloro-4-fluorophenyl)-N^5-(3,3-difluoro-1-methylcyclobutyl)-6,7-dihydropyrazolo[1,5-a]pyrazine-3,5(4H)-dicarboxamide]	8.00 to 11.00	8.00 to 11.00	–	–
NC(=O)c1c(-c2cccc(Cl)c2)nn2c1CN(C(=O)N[C@@H]1CC[C@@H]1C(F)F)CC2 [Compound 239, 2-(3-Chlorophenyl)-N^5-((1R,2S)-2-(difluoromethyl)cyclobutyl)-6,7-dihydropyrazolo[1,5-a] pyrazine-3,5(4H)-dicarboxamide]	8.00 to 11.00	8.00 to 11.00	–	–
COC12CCC(NC(=O)N3CCn4nc(-c5cccc(Cl)c5)c(C(N)=O)c4C3)(CC1)C(F)(F)C2 [Compound A81, 2-(3-Chlorophenyl)-N^5-(2,2-difluoro-4-methoxybicyclo[2.2.2]octan-1-yl)-6,7-dihydropyrazolo[1,5-a]pyrazine-3,5(4H)-dicarboxamide]	8.00 to 11.00	8.00 to 11.00	–	–
CC(C)(C)NC(=O)N1Cc2c(C(N)=O)c(-c3ccc(F)c(Cl)c3)nn2C2(CC2)C1 [Compound A132, N^5-(tert-Butyl)-2′-(3-chloro-4-fluorophenyl)-4′H-spiro[cyclopropane-1,7′-pyrazolo[1,5-a]pyrazine]-3′,5′(6′H)-dicarboxamide]	8.00 to 11.00	8.00 to 11.00	–	–
NC(=O)c1c(-c2ccc(F)c(Cl)c2)nn2c1CN(C(=O)NC1CCC(F)(F)CC1)C[C@@H]2C(F)F [Compound A14, (R)-2-(3-Chloro-4-fluorophenyl)-N^5-(4,4-difluorocyclohexyl)-7-(difluoromethyl)-6,7-dihydropyrazolo[1,5-a] pyrazine-3,5(4H)-dicarboxamide]	8.00 to 11.00	8.00 to 11.00	–	–
NC(=O)c1c(-c2cccc(Cl)c2)nn2c1CN(C(=O)NC1CC3(C1)CC3(F)F)CC2 (single isomer, unassigned) [Compound 323, 2-(3-Chlorophenyl)-N^5-(1,1-difluorospiro[2.3]hexan-5-yl)-6,7-dihydropyrazolo[1,5-a]pyrazine-3,5(4H)-dicarboxamide]	8.00 to 11.00	8.00 to 11.00	–	–
NC(=O)c1c(-c2cccc(Cl)c2)nn2c1CN(C(=O)NC1CC(F)(F)C1)CC21CC1 [A130]	8.00 to 11.00	8.00 to 11.00	–	–
CC1(NC(=O)N2CCn3nc(-c4cccc(Cl)c4)c(C(N)=O)c3C2)CC2(C1)CC2(F)F (single isomer, unassigned) [Compound 330, 2-(3-Chlorophenyl)-N^5-(1,1-difluoro-5-methylspiro[2.3]hexan-5-yl)-6,7-dihydropyrazolo[1,5-a]pyrazine-3,5(4H)-dicarboxamide]	8.00 to 11.00	8.00 to 11.00	–	–
CC1(NC(=O)N2Cc3c(C(N)=O)c(-c4ccc(Cl)c(Cl)c4)nn3C(CF)C2)CC(F)(F)C1 (centres unmarked) [Compound A27, 2-(3,4-Dichlorophenyl)-N^5-(3,3-difluoro-1-methylcyclobutyl)-7-(fluoromethyl)-6,7-dihydropyrazolo[1,5-a]pyrazine-3,5(4H)-dicarboxamide]	8.00 to 11.00	8.00 to 11.00	–	–
NC(=O)c1c(-c2ccc(Cl)c(Cl)c2)nn2c1CN(C(=O)NC1CC3(C1)CC(F)(F)C3)CC2 [Compound 208, 2-(3,4-Dichlorophenyl)-N^5-(6,6-difluorospiro [3.3]heptan-2-yl)-6,7-dihydropyrazolo[1,5-a] pyrazine-3,5(4H)-dicarboxamide]	8.00 to 11.00	8.00 to 11.00	–	–
NC(=O)c1c(-c2cccc(F)c2)nn2c1CN(C(=O)NC13CCC(C(F)F)(CC1)CC3)CC2 [Compound A94, N^5-(4-(Difluoromethyl)bicyclo[2.2.2]octan-1-yl)-2-(3-fluorophenyl)-6,7-dihydropyrazolo[1,5-a]pyrazine-3,5(4H)-dicarboxamide]	8.00 to 11.00	8.00 to 11.00	–	–
NC(=O)c1c(-c2ccc(F)c(Cl)c2)nn2c1CN(C(=O)N[C@@H]1CC[C@H]1COC(F)F)CC2 [Compound 241, 2-(3-Chloro-4-fluorophenyl)-N^5-((1R,2R)-2-((difluoromethoxy)methyl)cyclobutyl)-6,7-dihydropyrazolo[1,5-a]pyrazine-3,5(4H)-dicarboxamide]	8.00 to 11.00	8.00 to 11.00	–	–
CC(C)(C)NC(=O)N1Cc2c(C(N)=O)c(-c3ccc(F)c(Cl)c3)nn2C(C(=O)NC2CC2)C1 (centres unmarked) [Compound A23, N^5-(tert-Butyl)-2-(3-chloro-4-fluorophenyl)-N^7-cyclopropyl-6,7-dihydropyrazolo[1,5-a]pyrazine-3,5,7(4H)-tricarboxamide]	5.70 to 7.00	7.00 to 8.00	–	–
NC(=O)c1c(-c2cccc(Cl)c2)nn2c1CN(C(=O)NC1CC(COC(F)F)C1)CC2 (single isomer, unassigned) [Compound 245, 2-(3-Chlorophenyl)-N^5-(3-((difluoromethoxy)methyl)cyclobutyl)-6,7-dihydropyrazolo[1,5-a]pyrazine-3,5(4H)-dicarboxamide]	8.00 to 11.00	8.00 to 11.00	–	–
CC(C)(C)NC(=O)N1CCn2nc(-c3cccc(NS(C)(=O)=O)c3)c(C(N)=O)c2C1 [Compound 118, N^5-(tert-Butyl)-2-(3-(methylsulfonamido)phenyl)-6,7-dihydropyrazolol[1,5-a] pyrazine-3,5(4H)-dicarboxamide]	5.70 to 7.00	5.70 to 7.00	–	–
CC(C)NC(=O)C(C)(C)NC(=O)N1CCn2nc(-c3ccc(F)c(Cl)c3)c(C(N)=O)c2C1 [Compound 216, 2-(3-Chloro-4-fluorophenyl)-N^5-(1-(isopropylamino)-2-methyl-1-oxopropan-2-yl)-6,7-dihydropyrazolo[1,5-a] pyrazine-3,5(4H)-dicarboxamide]	7.00 to 8.00	5.70 to 7.00	–	–
CC(C)(NC(=O)N1CCn2nc(-c3ccc(Cl)c(Cl)c3)c(C(N)=O)c2C1)C(F)F [Compound 199, 2-(3,4-Dichlorophenyl)-N^5-(1,1-difluoro-2-methylpropan-2-yl)-6,7-dihydropyrazolo[1,5-a]pyrazine-3,5(4H)-dicarboxamide]	8.00 to 11.00	8.00 to 11.00	–	–
CC(C)(C)NC(=O)N1Cc2c(C(N)=O)c(-c3ccc(F)c(Cl)c3)nn2C(COC(F)F)C1 (centres unmarked) [Compound A22, N^5-(tert-Butyl)-2-(3-chloro-4-fluorophenyl)-7-((difluoromethoxy)methyl)-6,7-dihydropyrazolo[1,5-a]pyrazine-3,5(4H)-dicarboxamide]	8.00 to 11.00	8.00 to 11.00	–	–
CC(C)(C)NC(=O)N1Cc2c(C(N)=O)c(-c3ccc(Cl)c(Cl)c3)nn2C(C(F)F)C1 (centres unmarked) [Compound A31, N^5-(tert-Butyl)-2-(3,4-dichlorophenyl)-7-(difluoromethyl)-6,7-dihydropyrazolo[1,5-a]pyrazine-3,5(4H)-dicarboxamide]	7.00 to 8.00	7.00 to 8.00	–	–
CC(C)(C)NC(=O)N1CCn2nc(-c3cn[nH]c3)c(C(N)=O)c2C1 [Compound 145, N^5-(tert-Butyl)-2-(1H-pyrazol-4-yl)-6,7-dihydropyrazolo[1,5-a] pyrazine-3,5(4H)-dicarboxamide]	5.70 to 7.00	5.70 to 7.00	5.98	5.74
CC1CN(C(=O)NC2CC(F)(F)C2)Cc2c(C(N)=O)c(-c3cccc(Cl)c3)nn21 (single isomer, unassigned) [Compound A111, 2-(3-Chlorophenyl)-N^5-(3,3-difluorocyclobutyl)-7-methyl-6,7-dihydropyrazolo[1,5-a]pyrazine-3,5(4H)-dicarboxamide]	8.00 to 11.00	8.00 to 11.00	–	–
CS(=O)(=O)[C@H]1C[C@@H](NC(=O)N2CCn3nc(-c4ccc(F)c(Cl)c4)c(C(N)=O)c3C2)C1 [Compound 272, 2-(3-Chloro-4-fluorophenyl)-N^5-((1s,3s)-3-(methylsulfonyl)cyclobutyl)-6,7-dihydropyrazolo[1,5-a]pyrazine-3,5(4H)-dicarboxamide]	8.00 to 11.00	8.00 to 11.00	–	–
CC(C)(C)NC(=O)N1CCn2nc(-c3cncc4ccccc34)c(C(N)=O)c2C1 [Compound 133, N^5-(tert-Butyl)-2-(isoquinolin-4-yl)-6,7-dihydropyrazolo[1,5-a] pyrazine-3,5(4H)-dicarboxamide]	5.70 to 7.00	5.70 to 7.00	–	–
NC(=O)c1c(-c2ccc(Cl)c(Cl)c2)nn2c1CN(C(=O)NC13CCC(c4ccc(F)cc4)(CC1)CC3)CC2 [Compound A89, 2-(3,4-Dichlorophenyl)-N^5-(4-(4-fluorophenyl)bicyclo[2.2.2]octan-1-yl)-6,7-dihydropyrazolo[1,5-a]pyrazine-3,5(4H)-dicarboxamide]	8.00 to 11.00	8.00 to 11.00	–	–
C[C@@]12C[C@H]3C[C@@](Cl)(C1)C[C@](NC(=O)N1CCn4nc(-c5ccc(Cl)c(Cl)c5)c(C(N)=O)c4C1)(C3)C2 [Compound A93, N^5-((1S,3R,5S,7R)-3-Chloro-5-methyladamantan-1-yl)-2-(3,4-dichlorophenyl)-6,7-dihydropyrazolo[1,5-a]pyrazine-3,5(4H)-dicarboxamide]	8.00 to 11.00	8.00 to 11.00	–	–
CC1(F)CC(C)(NC(=O)N2CCn3nc(-c4ccc(F)c(Cl)c4)c(C(N)=O)c3C2)C1 (centres unmarked) [Compound 307, 2-(3-Chloro-4-fluorophenyl)-N^5-(3-fluoro-1,3-dimethylcyclobutyl)-6,7-dihydropyrazolo[1,5-a]pyrazine-3,5(4H)-dicarboxamide]	8.00 to 11.00	8.00 to 11.00	–	–
COc1ccc([C@H]2C[C@@H](NC(=O)N3CCn4nc(-c5cccc(Cl)c5)c(C(N)=O)c4C3)C2)cc1 [Compound 281, 2-(3-Chlorophenyl)-N^5-((1s,3s)-3-(4-methoxyphenyl)cyclobutyl)-6,7-dihydropyrazolo[1,5-a] pyrazine-3,5(4H)-dicarboxamide]	8.00 to 11.00	8.00 to 11.00	–	–
